From patent publication US8568986B2, “Method of selecting an agent that improves periodontal disease” (Kao Corporation, priority 2009, dated 2013)

Key:
syrian hamsters = test: Alveolar bone resorption in floss-tied mandibular first molars of syrian hamsters; format: in vivo; details: syrian hamster; for Alveolar bone resorption depth (mm): 200 μL of 10 μM solution dropwise to floss-tied first molars twice a day for two weeks, control 2.87; for absorption of the alveolar bone: added dropwise to the oral cavity for two weeks
Procedure: The mandibule of syrian hamsters (three males, 7 weeks old) was extracted under anesthesia and a photograph was taken under the stereoscopic microscope. An evaluation site is the lingual surface of extraction mandibule. The obtained photographs were subjected to image analysis and a vertical distance from the first molar mesial cusp tip to the alveolar tip was measured.
Floss was tied around the left and right mandibular first molar teeth of other syrian hamsters (three males, 7 weeks old). From the next day on, 200 μL of a PBS solution containing 1% DMSO (concentration: 10 μM) of Compound 1 or 2 above was added dropwise to the same tied sites twice a day for two weeks and they were bred.
After the end of breeding, the mandibule was extracted under anesthesia and photographs were taken under the stereoscopic microscope. An evaluation site is the lingual surface of extraction mandibule and the taken photographs were subjected to image analysis. […] a vertical distance from the first molar mesial cusp tip to the alveolar tip was measured.
The alveolar bone resorption depth (a value before addition is subtracted from a value after addition for two weeks) was measured from the vertical distance from the first molar mesial cusp tip to the alveolar tip before addition of the test drug and after addition of the test drug for two weeks.

[1] = tested on: Vibrio harveyi BB170 strain (AI-2 reporter bacterium); test: AI-2 activity inhibitory effect, photogenesis intensity of AI-2 reporter bacterium after addition of DPD; format: cell-based; details: relative to control with only DPD added (=100); 10 min preincubation, 4 h culture at 30° C
Procedure: The method of screening an improving agent or preventive agent for periodontal disease of the present invention containing mixing a bacterium having an autoinducer-2-mediated quorum sensing system with a test drug and selecting a test drug having an autoinducer-2 activity inhibitory effect as an improving agent or preventive agent for periodontal disease. For example, a Vibrio harveyi BB 170 strain is prepared in a culture medium at 1000- to 10000-fold dilution (preferably 4000- to 5000-fold) and preincubated with a test compound solution at room temperature for 1 to 30 minutes (preferably for 10 minutes). Then, AI-2 was added to the resultant solution, which was subjected to aerobic shaking culture at 30±5° C. Two (2) to six (6) hours later (preferably four (4) hours later), the photogenesis intensity is measured with a chemiluminescence analyzer. The final concentration of AI-2 is from 0.001 to 100 μM (preferably 10 μM). The final concentration of the test compound solutions is from 0.0001 to 0.1% or from 1 to 100 μM. Each concentration is not limited thereto. The photogenesis intensity when a control obtained by adding only the AI-2 is mixed with the test compound solution is measured as a relative value to the photogenesis intensity of control so that the AI-2 activity inhibitory effect of the test compound can be measured. The bacterium having an autoinducer-2-mediated quorum sensing system is not particularly limited. A reporter bacterium which recognizes the autoinducer-2 thereby emitting light is preferred and dental bacteria and periodontal pathogens can also be used. Further, the bacterium having an autoinducer-2-mediated quorum sensing system which is collected from the oral cavity of a subject can also be used as a specimen.
A Vibrio harveyi BB170 strain (cultured in an AB medium at 30° C. overnight) was used as an AI-2 reporter bacterium and it was 4500-fold diluted with an AB culture medium to prepare a reporter bacterium liquid. A reporter bacterium liquid was mixed with each of the test drugs, which was preincubated at room temperature for 10 minutes, followed by addition of DPD and aerobic shaking culture at 30° C. Four (4) hours later, the photogenesis intensity was measured with the chemiluminescence analyzer (LB940 type, manufactured by Berthold Japan co. ltd.). AI-2 was quantified from the measured photogenesis intensity in the same manner as described in Example 1.
The amount of AI-2 was a relative value to the amount of DPD of the control (the amount of AI-2) when one obtained by adding only the DPD without adding the test drugs was used as a control.

COc1ccc(C2OC(=O)C=C2Br)cc1 (centres unmarked) [Compound 1, 4-bromo-5-(4-methoxyphenyl)-2(5H)-furanone]
Alveolar bone resorption depth (mm) (syrian hamsters): 2.50 mm
absorption of the alveolar bone (syrian hamsters): suppressed
AI-2 amount (relative value) [1]: 29.6

O=C1OC(O)C(Br)=C1Br (centres unmarked) [Compound 2, 3,4-dibromo-5-hydroxy-2(5H)-furanone]
Alveolar bone resorption depth (mm) (syrian hamsters): 2.62 mm
absorption of the alveolar bone (syrian hamsters): suppressed
AI-2 amount (relative value) [1]: 0

COc1ccc(C2(OC)OC(=O)C=C2Br)cc1 (centres unmarked) [Compound 3, 4-bromo-5-methoxy-5-(4-methoxyphenyl)-2(5H)-furanone]
AI-2 amount (relative value) [1]: 62.5

COc1ccc(C2(Oc3ccc(C(=O)O)cc3)OC(=O)C=C2Br)cc1 (centres unmarked) [Compound 4, 4-{[3-bromo-2-(4-methoxyphenyl)-5-oxo-2,5-dihydro-2-furanyl]oxy}benzoate]
AI-2 amount (relative value) [1]: 76.0

CC1=C(O)C(=O)C(C)O1 (centres unmarked) [Compound 5, 4-hydroxy-2,5-dimethyl-3(2H)-furanone, reference compound]
AI-2 amount (relative value) [1]: 77.0

COC1(c2ccccc2)OC=C(c2ccccc2)C1=O (centres unmarked) [Compound 6, 2-methoxy-2,4-diphenyl-3(2H)-furanone, reference compound]
AI-2 amount (relative value) [1]: 88.9

CCCCCC1=CCCC1=O [Compound 7, 2-pentyl-2-cyclopentene-1-one, reference compound]
AI-2 amount (relative value) [1]: 63.4
